Measurements published in US10307466B2, “Composition comprising sophorolipid, physiologically active substance and oil or fat, and method for producing the same” (SARAYA CO., LTD., priority 2014, dated 2019).

Experiment: Binding to phosphatidylcholine-coated silica beads (TRANSIL Intestinal Absorption Kit)
Conditions: compared with the physiologically active substance alone taken as 1; for Relative amount of physiologically active substance bound to the beads, Example (sophorolipid): substance emulsified with sophorolipid; for Relative amount of physiologically active substance bound to the beads, Comparative Example (sucrose fatty acid ester): substance emulsified with sucrose fatty acid ester
Procedure: In the evaluation herein, the binding of substances to silica beads coated with a phospholipid (phosphatidylcholine) was compared. A higher binding indicates a higher cell membrane transport and a higher intestinal absorption.
An aqueous phase was prepared and the pH was adjusted with a pH adjuster to a pH value of 6. The aqueous phase and an oil phase were heated to 50 to 60° C. The aqueous phase was added to the oil phase. The mixture was stirred with a homogenizer (HG-200, As One Corporation) at a high speed of 10,000 rpm for 10 minutes to give an emulsion.
The affinity with phosphatidylcholine-coated silica beads (TRANSIL Intestinal Absorption Kit, SOVICELL GMBH) was assessed. A volume of 200 μl of PBS (phosphate buffered saline) containing the beads was added to each tube, and 20 μl of each of the compositions was added. The mixture was agitated with a test tube mixer for 12 minutes. The beads were allowed to settle, and the supernatant was collected and diluted to 10-fold. The fluorescence intensity of the supernatant was measured with a spectrophotometer (Hitachi F-2700, excitation wavelength: 494 nm, fluorescence wavelength: 521 nm).
A volume of 200 μl of PBS containing the beads was added to each tube, and 20 μl of each of the compositions was added. The mixture was agitated with a test tube mixer for 12 minutes. The beads were allowed to settle, and the supernatant was removed. The beads were washed with PBS, and 200 μl of methanol was added to elute oil red from the beads. The absorbance of the oil red solution in methanol was measured at 510 nm with an ultraviolet spectrophotometer (Shimadzu UV-1200). The relative amount of the pigment of Example 14 or Comparative Example 4 bound to the beads was calculated, with the obtained value of an oil red solution (Comparative Example 5) taken as 1.
A volume of 200 μl of PBS containing the beads was added to each tube, and 20 μl of each of the compositions was added. The mixture was agitated with a test tube mixer for 12 minutes. The beads were allowed to settle, and the supernatant was removed. The beads were washed with PBS, and 200 μl of methanol was added to elute tocopherol from the beads. The amount of tocopherol was measured by HPLC (Shimadzu LC-10A series). The relative amount of tocopherol of Example 15 or Comparative Example 6 bound to the beads was calculated, with the obtained value of a tocopherol solution (Comparative Example 7) taken as 1.
A volume of 200 μl of PBS containing the beads was added to each tube, and 20 μl of each of the compositions was added. The mixture was agitated with a test tube mixer for 12 minutes. The beads were allowed to settle, and the supernatant was removed. The beads were washed with PBS, and 200 μl of hexane was added to elute DHA from the beads. The amount of DHA was measured by gas chromatography (Shimadzu GC-2014 series).
The relative amount of DHA of Example 16 or Comparative Example 8 bound to the beads was calculated, with the obtained value of a DHA solution (Comparative Example 9) taken as 1.
GC was used for the analysis of eicosapentaenoic acid and linoleic acid. […] An atomic absorption spectrophotometer was used for the analysis of zinc gluconate, copper gluconate, and iron citrate.
The calculated value was expressed by the symbols A, B and C. The affinities of the physiologically active substances were assessed by comparing the cases where each physiologically active substance was emulsified with a sucrose fatty acid ester or the sophorolipid and where each of the physiologically active substances was used alone.

Substance | Relative amount of physiologically active substance bound to the beads, Example (sophorolipid) | Relative amount of physiologically active substance bound to the beads, Comparative Example (sucrose fatty acid ester)
Zinc gluconate | B (affinity of not less than 2.0-fold and less than 5.0-fold) | C (affinity of less than 2.0-fold)
Copper gluconate | B (affinity of not less than 2.0-fold and less than 5.0-fold) | C (affinity of less than 2.0-fold)
Iron citrate | B (affinity of not less than 2.0-fold and less than 5.0-fold) | C (affinity of less than 2.0-fold)
